Values of other authors, collected in patent publication US9554996B2, “Compositions and methods for delivery of poorly soluble drugs” (Nanotherapeutics, Inc., priority 2007, dated 2017).
Where a name gives a salt, the structure may show the parent alone.

Conditions: water

## COc1ccc2c3c1O[C@H]1C(=O)CC[C@@]4(O)[C@@H](C2)N(C)CC[C@]314 [oxycodone hydrochloride, oxycodone]
  solubility at neutral pH: 100 mg/ml
